Where two headings read alike, the source gives them in different places.
Key:
[1] = format: in vivo; settings: human, plasma, oral, at 6 weeks, read-out: Omecamtiv mecarbil PK value (plasma concentration), median
[2] = test system: patients with or without AFF; format: in vivo; settings: for Troponin I increase: at 6 weeks; for Treatment effect on primary outcome by AFF at baseline: multivariable covariate-interaction model
[3] = test system: patients with EF≤30%, without AFF, without digoxin; format: in vivo, human
[4] = Clinical pharmacokinetics: distribution and elimination; settings: human, in vivo
Excerpt: The volume of distribution at steady state was approximately 4.8-6.6 L/kg.
Clearance of OM after oral administration was primarily through metabolism in the liver. […] Following oral administration of radiolabeled OM to healthy subjects, approximately 49% of the dose was excreted in urine (primarily as metabolites with 8% of parent compound recovered) and 38% in feces (primarily as unchanged drug).

BCRP = molecular target: T1, BCRP (Homo sapiens, UniProt Q9UNQ0); experiment: In vitro inhibition by OM; format: in vitro ADME; settings: result in words
T1 sequence (Q9UNQ0 1-655): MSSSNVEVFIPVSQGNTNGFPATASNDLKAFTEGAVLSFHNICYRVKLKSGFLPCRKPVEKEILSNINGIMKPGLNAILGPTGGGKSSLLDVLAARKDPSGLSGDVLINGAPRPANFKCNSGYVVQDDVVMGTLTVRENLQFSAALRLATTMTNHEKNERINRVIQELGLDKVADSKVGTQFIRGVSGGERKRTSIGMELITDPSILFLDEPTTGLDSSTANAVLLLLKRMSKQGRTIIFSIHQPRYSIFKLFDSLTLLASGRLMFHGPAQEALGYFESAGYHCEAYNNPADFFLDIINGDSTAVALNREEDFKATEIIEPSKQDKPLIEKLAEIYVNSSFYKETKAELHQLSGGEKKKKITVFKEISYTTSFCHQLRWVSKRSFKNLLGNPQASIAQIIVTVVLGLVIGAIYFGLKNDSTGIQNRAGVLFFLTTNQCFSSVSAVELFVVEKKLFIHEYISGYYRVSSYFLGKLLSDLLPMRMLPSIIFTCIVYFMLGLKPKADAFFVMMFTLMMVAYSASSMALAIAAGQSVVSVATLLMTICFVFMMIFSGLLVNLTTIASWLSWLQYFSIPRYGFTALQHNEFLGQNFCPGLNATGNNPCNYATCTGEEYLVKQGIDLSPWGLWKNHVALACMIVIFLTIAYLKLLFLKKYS

CYP2C8 = molecular target: T2, CYP2C8 (Homo sapiens, UniProt P10632); experiment: In vitro inhibition by OM; format: in vitro ADME; settings: result in words
T2 sequence (P10632 1-490): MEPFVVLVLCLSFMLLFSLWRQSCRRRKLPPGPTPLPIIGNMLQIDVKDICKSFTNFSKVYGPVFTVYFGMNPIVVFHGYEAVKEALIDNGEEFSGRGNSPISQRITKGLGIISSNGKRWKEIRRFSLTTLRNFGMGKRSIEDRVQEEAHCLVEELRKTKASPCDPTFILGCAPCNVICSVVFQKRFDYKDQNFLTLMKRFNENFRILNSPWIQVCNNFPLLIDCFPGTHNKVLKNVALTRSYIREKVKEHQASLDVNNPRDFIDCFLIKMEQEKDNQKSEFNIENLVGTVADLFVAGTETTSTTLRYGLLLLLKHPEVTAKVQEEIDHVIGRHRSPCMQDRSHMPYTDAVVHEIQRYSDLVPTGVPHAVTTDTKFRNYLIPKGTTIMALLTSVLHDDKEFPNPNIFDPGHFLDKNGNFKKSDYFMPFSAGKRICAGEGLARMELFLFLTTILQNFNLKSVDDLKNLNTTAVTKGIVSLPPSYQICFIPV

CYP3A4 = experiment: In vitro induction by OM; format: in vitro ADME; settings: result in words
Excerpt: OM may be administered with drugs that are substrates of CYP3A4, CYP2C8, P-gp or BCRP.

[5] = EF ≤30%, no AFF, no digoxin, OM + standard care (n = 2674)
[6] = EF ≤30%, no AFF, no digoxin, OM vs Pbo

## COC(=O)N1CCN(Cc2cccc(NC(=O)Nc3ccc(C)nc3)c2F)CC1 [omecamtiv mecarbil]
[1]; patients not taking digoxin
  concentration at 6 weeks: 280 ng/mL
[1]; patients taking digoxin
  concentration at 6 weeks: 286 ng/mL
[2]; patients in AFF at baseline not taking digoxin
  Troponin I increase: +45%
[2]; patients in AFF at baseline taking digoxin
  Troponin I increase: +29%
[2]; result in words
  Treatment effect on primary outcome by AFF at baseline: greater benefit observed in patients not in AFF
  Treatment effect modification by AFF according to digoxin use: significantly more pronounced in digoxin users than in non-users
[2]; result in words, listed as OM
  Treatment effect on primary outcome by AFF at baseline: patients without AFF deriving greater benefit
[2]; per 2974 patients, over the course of the study (FIG. 21E)
  Serious adverse events, events: 55 events
[3]; [5]
  Cumulative rate of HFEs at 36 months: 81.8/ /100 pts
  Frequency of HFE (all events): 31.2/ /100 pt yrs
  IV Diuretics /Inotropes Nasodilators: 35.7 /100 pt yrs
  Mechanical circulatory support during HF hospitalizations: 2.2 /100 pt yrs
  Mechanical fluid removal during HF hospitalizations: 0.8 /100 pt yrs
  Time to first HFE, rate: 18.9/ /100 pt yrs
  Total days in hospital: 524.1 /100 pt yrs
[3]; [6]
  Cumulative rate of HFEs at 36 months, Rate Ratio: Rate Ratio 0.799
  Cumulative rate of HFEs: treatment effect over time: increasing
  Frequency of HFE (all events), ARR: ARR 6.7/100 pt yrs
  Frequency of HFE (all events), HR: HR 0.85,
  Frequency of HFE (all events), NNT: NNT 14.9
  Time to first HFE, ARR: ARR 3.8/100 pt yrs
  Time to first HFE, NNT: NNT 26.5
[3]; EF≤30%, without AFF, without digoxin at baseline, result in words
  Clinical benefits and resource utilization: significant clinical benefits and reductions in resource utilization
[4]
  Renal clearance as share of the systemic clearance: less than 10%
[4]; oral, read-out: Mean renal clearance (converted)
  CL renal: 16.7 mL/min
[4]; oral, read-out: Total systemic clearance (converted)
  clearance: 195 mL/min
[4]; patients with heart failure, read-out: Median half-life
  half-life: 23 to 32 h
[4]; read-out: Volume of distribution at steady state
  Vd: 4.8 to 6.6 L/kg
BCRP
  Inhibition of BCRP: inhibitor
CYP2C8
  Inhibition of CYP2C8: inhibitor
CYP3A4
  Induction of CYP3A4: inducer

— patent US12194039B2, “Methods of treating heart failure by administering omecamtiv mecarbil” (Cytokinetics, Inc., priority 2020, dated 2025)
